Class data for 16 compounds are collected here from patent US20050197350A1, “Novel quinoline, tetrahydroquinazoline, and pyrimidine derivatives and methods of treatment related to the use thereof” (TAISHO PHARMACEUTICAL CO., LTD., priority 2003, published 2005).

The subject of the test is MCH receptors. The experiment in a line: MCH receptor activity class (method not given). Conditions: class by percent of control at 10^-7 M or IC50.

For `COc1cc(OC)c(CNC[C@H]2CC[C@@H](Nc3nc4c(c(N(C)C)n3)CCCC4)CC2)cc1Br` [compound 1386], the class is 3 (Class 3 The value of percent of control at 10^−7 M was more than 60% or the value of IC50 was more than 200 nM.).

For `COc1ccc(Br)cc1CNC[C@H]1CC[C@@H](Nc2nc3c(c(N(C)C)n2)CCCC3)CC1` [compound 1387], the class is listed as 3 (Class 3 The value of percent of control at 10^−7 M was more than 60% or the value of IC50 was more than 200 nM.).

As for `CN(C)c1nc(N[C@H]2CC[C@@H](CNCc3ccc(O)cc3Cl)CC2)nc2c1CCCC2` [compound 1388], the class is recorded as 2 (Class 2: The value of percent of control at 10^−7 M was from 40% to 60% or the value of IC′50 was from 50 nM to 200 nM.).

As for `CN(C)c1nc(N[C@H]2CC[C@@H](CNCc3ccccc3C#N)CC2)nc2c1CCCC2` [compound 1389], the class is on record as 3 (Class 3 The value of percent of control at 10^−7 M was more than 60% or the value of IC50 was more than 200 nM.).

For `CN(C)c1nc(N[C@H]2CC[C@@H](CNCc3cccc(Cl)c3)CC2)nc2c1CCCC2` [compound 1390], the class is reported as 3 (Class 3 The value of percent of control at 10^−7 M was more than 60% or the value of IC50 was more than 200 nM.).

As to `CN(C)c1nc(N[C@H]2CC[C@@H](CNCc3ccc(Cl)cc3)CC2)nc2c1CCCC2` [compound 1391], the class is 3 (Class 3 The value of percent of control at 10^−7 M was more than 60% or the value of IC50 was more than 200 nM.).

Regarding `CCN(CC)c1ccc(CNC[C@H]2CC[C@@H](Nc3nc4c(c(N(C)C)n3)CCCC4)CC2)cc1` [compound 1392], the class is 2 (Class 2: The value of percent of control at 10^−7 M was from 40% to 60% or the value of IC′50 was from 50 nM to 200 nM.).

Regarding `CN(C)c1ccc(CNC[C@H]2CC[C@@H](Nc3nc4c(c(N(C)C)n3)CCCC4)CC2)cc1` [compound 1393], the class is 3 (Class 3 The value of percent of control at 10^−7 M was more than 60% or the value of IC50 was more than 200 nM.).

As to `CCn1c2ccccc2c2cc(CNC[C@H]3CC[C@@H](Nc4nc5c(c(N(C)C)n4)CCCC5)CC3)ccc21` [compound 1394], the class is recorded as 3 (Class 3 The value of percent of control at 10^−7 M was more than 60% or the value of IC50 was more than 200 nM.).

Regarding `CN(C)c1nc(N[C@H]2CC[C@@H](CNCc3cc(C(F)(F)F)ccc3F)CC2)nc2c1CCCC2` [compound 1395], the class is recorded as 3 (Class 3 The value of percent of control at 10^−7 M was more than 60% or the value of IC50 was more than 200 nM.).

Consider `CN(C)c1nc(N[C@H]2CC[C@@H](CNCc3ccc(O)cc3)CC2)nc2c1CCCC2` [compound 1396], for which the class is 3 (Class 3 The value of percent of control at 10^−7 M was more than 60% or the value of IC50 was more than 200 nM.).

Take `CN(C)c1nc(N[C@H]2CC[C@@H](CNCc3ccc(CO)o3)CC2)nc2c1CCCC2` [compound 1397]: the class is listed as 3 (Class 3 The value of percent of control at 10^−7 M was more than 60% or the value of IC50 was more than 200 nM.).

For `CC(C)Oc1ccc(CNC[C@H]2CC[C@@H](Nc3nc4c(c(N(C)C)n3)CCCC4)CC2)cc1` [compound 1398], the class was 3 (Class 3 The value of percent of control at 10^−7 M was more than 60% or the value of IC50 was more than 200 nM.).

As for `CCc1ccc(CNC[C@H]2CC[C@@H](Nc3nc4c(c(N(C)C)n3)CCCC4)CC2)s1` [compound 1399], the class was 3 (Class 3 The value of percent of control at 10^−7 M was more than 60% or the value of IC50 was more than 200 nM.).

Regarding `CN(C)c1nc(N[C@H]2CC[C@@H](CNCC=C(c3ccccc3)c3ccccc3)CC2)nc2c1CCCC2` [compound 1400], the class was 1 (Class 1: The value of percent of control at 10^−7 M was less than 40% or the value of IC50 was less than 50 nM.).

With `CCOc1cc(CNC[C@H]2CC[C@@H](Nc3nc4c(c(N(C)C)n3)CCCC4)CC2)ccc1O` [compound 1401], the class is given as 2 (Class 2: The value of percent of control at 10^−7 M was from 40% to 60% or the value of IC′50 was from 50 nM to 200 nM.).
